The values below come from ChEMBL document CHEMBL3046433, “Synthesis and Antimuscarinic Activity of Derivatives of 2-Substituted-1,3-Dioxolanes” (Med Chem Res, 2005).

By pKb is commonly meant the negative decadic logarithm of the Kb, by convention in mol/L. A high value points to a small Kb.

Assay [1] concerns the target T1, Muscarinic receptor 2 (Cavia porcellus, UniProt Q8VH27).
T1 sequence (Q8VH27 whole entry): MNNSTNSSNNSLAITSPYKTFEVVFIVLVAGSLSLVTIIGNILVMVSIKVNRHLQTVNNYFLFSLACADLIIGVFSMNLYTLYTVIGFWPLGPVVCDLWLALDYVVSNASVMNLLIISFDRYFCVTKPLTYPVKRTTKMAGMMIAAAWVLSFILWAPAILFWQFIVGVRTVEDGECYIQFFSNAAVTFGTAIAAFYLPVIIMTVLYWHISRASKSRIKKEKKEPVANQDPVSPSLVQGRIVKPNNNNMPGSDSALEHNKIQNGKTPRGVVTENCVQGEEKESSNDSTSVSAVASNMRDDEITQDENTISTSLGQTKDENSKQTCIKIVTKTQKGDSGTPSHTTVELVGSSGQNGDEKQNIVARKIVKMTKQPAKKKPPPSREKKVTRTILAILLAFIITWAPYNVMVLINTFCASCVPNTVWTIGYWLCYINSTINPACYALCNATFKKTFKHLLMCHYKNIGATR
In words: Antagonist activity at Cavia porcellus (guinea pig) left atria M2 receptor after 2 hr. The conditions noted are these: read-out: pA2 (converted).

Assay [2] deals with Muscarinic acetylcholine receptor M3 (Cavia porcellus, UniProt Q8VH26). Nature of the assay: Antagonist activity at Cavia porcellus (guinea pig) ileum M3 receptor after 30 min. The format is tissue-based. Particulars: read-out: pA2 (converted).
Chain of Muscarinic acetylcholine receptor M3 (Q8VH26 whole entry): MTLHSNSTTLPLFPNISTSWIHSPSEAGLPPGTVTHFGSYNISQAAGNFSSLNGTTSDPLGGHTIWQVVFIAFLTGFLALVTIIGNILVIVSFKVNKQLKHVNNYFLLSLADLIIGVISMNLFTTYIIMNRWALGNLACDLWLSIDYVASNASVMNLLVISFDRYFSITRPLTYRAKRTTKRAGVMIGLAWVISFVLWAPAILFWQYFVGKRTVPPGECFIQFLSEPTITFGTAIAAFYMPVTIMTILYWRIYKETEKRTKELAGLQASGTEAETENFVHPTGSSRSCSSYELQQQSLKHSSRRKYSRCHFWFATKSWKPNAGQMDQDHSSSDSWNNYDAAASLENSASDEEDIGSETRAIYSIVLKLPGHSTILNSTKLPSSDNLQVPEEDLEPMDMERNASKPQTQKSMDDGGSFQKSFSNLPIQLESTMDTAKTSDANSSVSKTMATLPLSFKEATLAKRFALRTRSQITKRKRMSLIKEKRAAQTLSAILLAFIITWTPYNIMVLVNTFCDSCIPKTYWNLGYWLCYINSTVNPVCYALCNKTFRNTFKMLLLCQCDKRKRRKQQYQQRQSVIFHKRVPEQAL
Assay [3] is filed under the species Oryctolagus cuniculus. Nature of the assay: Binding affinity to Oryctolagus cuniculus (rabbit) vas deferens M1 receptor after 1 hr.
Assay [4] has as its target T2, Muscarinic receptor 2 (Cavia porcellus) (UniProt Q8VH27).
T2 sequence (whole entry): T1 sequence (Q8VH27 whole entry)
Nature of the assay: Binding affinity to Cavia porcellus (guinea pig) left atria M2 receptor after 2 hr.

Assay [5] is filed under the species Cavia porcellus. In words: Selectivity ratio of pKb for Cavia porcellus (guinea pig) ileum M3 receptor to pKb for Cavia porcellus (guinea pig) left atria M2 receptor. The conditions noted are these: Atrium/Ileum. The assay is classed as tissue-based.
Assay [6] can be described thus: Selectivity ratio of pKb for rabbit vas deferens M1 receptor to pKb for guinea pig left atria M2 receptor.
For assay [7], the target named is Muscarinic acetylcholine receptor M3 (Cavia porcellus) (UniProt Q8VH26). Nature of the assay: Binding affinity to Cavia porcellus (guinea pig) ileum M3 receptor after 30 min. The format is tissue-based.
Chain of Muscarinic acetylcholine receptor M3 (Cavia porcellus) (Q8VH26 1-587): as the sequence (Q8VH26 whole entry) above
Assay [8] can be described thus: Selectivity ratio of pKb for rabbit vas deferens M1 receptor to pKb for guinea pig ileum M3 receptor. The assay is classed as tissue-based.

In the case of `CN(C)[C@H]1CO[C@@H](C(c2ccccc2)c2ccccc2)OC1`, the Kb is 28.2 nM in assay [1] and 5.37 nM in assay [2].

For the compound `C[C@@H]1OC(c2ccccc2)(c2ccccc2)O[C@@H]1CN(C)C` (relative stereo), the pKb in assay [3] is 6.35; in assay [4], 6.48; in assay [7], 6.44. For the same compound, the Ratio pKb in assay [5] was found to be 0.9; in assay [6], 0.7; in assay [8] it was 0.8.

In the case of `CN(C)CC1COC(c2ccccc2)(c2ccccc2)O1` (centres undefined), the pKb turned out to be 7.15 in assay [3], 7.11 in assay [4] and 6.72 in assay [7]. In addition, the Ratio pKb in assay [5] was 0.4; in assay [6] it was 1; in assay [8], 3.

Take `C[C@H]1OC(c2ccccc2)(c2ccccc2)O[C@@H]1CN(C)C` (relative stereo): the pKb in assay [3] was found to be 6.87; in assay [4], 6.71; in assay [7], 6.71. Also, the Ratio pKb in assay [5], in assay [6] and in assay [8] was 1 each time.

As for `CN(C)C[C@@H]1CO[C@@H](C(c2ccccc2)c2ccccc2)O1`, the negative-log Kb (pKb) in assay [3] was determined as 6.9; in assay [4], 6.56; in assay [7], 6.67. The Ratio pKb is 1 in assay [5], 2 in assay [6] and 2 in assay [8].

As to `CN(C)[C@H]1CO[C@H](C(c2ccccc2)c2ccccc2)OC1`, the Kb in assay [1] was 1580 nM; in assay [2], 372 nM.

With `CN(C)C[C@@H]1CO[C@H](C(c2ccccc2)c2ccccc2)O1`, the pKb in assay [3] stood at 7.31; in assay [4], 6.62; in assay [7] it was 6.07. The Ratio pKb in assay [5] is 0.3; in assay [6] it was 5; in assay [8] it was 17.
